In one series the test system is E. coli MG1655 LolA. The arrangement: method as in PMID 23473681. Particulars: read-out: IC50 against E. coli MG1655 LolA; cited from earlier work.
In the next series the test system is Gram-positive bacteria. The experiment in a line: Antimicrobial activity test, summary over Gram-positive bacteria. It counts as cell-based. As to conditions: most Gram-positive bacteria.
The next series relates to E. coli MC4100. The experiment in a line: Antimicrobial activity test (growth, OD600). It counts as cell-based. Particulars: for IC50: Escherichia coli, MC4100, 20 h, 37 °C, OD600, read-out: Bacterial Viability IC50, E. coli MC4100.
Another series has as its system E. coli BL21. The experiment in a line: Antimicrobial activity test (growth, OD600). It counts as cell-based. Particulars: for IC50: Escherichia coli, BL21, BL21, 20 h, 37 °C, OD600, read-out: Bacterial Viability IC50, E. coli BL21.
In the next series the test system is E. coli strains. The experiment in a line: Antimicrobial activity test, E. coli strains (strain not given with the value). It counts as cell-based. Particulars: for IC50: strain not given, read-out: Growth inhibition IC50, E. coli strains.
The next series concerns E. coli. As to conditions: cited from earlier work.
Series [1] has as its system PhoA secretion in E. coli strain BL21 (pLysS). The experiment in a line: Luminescence-based HTS assay of in vivo PhoA secretion. The series is classed as cell-based. Particulars: for IC50: Escherichia coli, BL21, luminescence-based HTS assay, E. coli BL21, read-out: Inhibition of PhoA Secretion IC50, HTS.
In the next series the test system is B. subtilis ATCC6633. The experiment in a line: Antimicrobial activity test (growth, OD600). It counts as cell-based. Particulars: for IC50: Bacillus subtilis, ATCC6633, 20 h, 37 °C, OD600, read-out: Bacterial Viability IC50, B. subtilis ATCC6633.
In series [2] the test system is PhoA secretion in E. coli MC4100. The experiment in a line: microbe, parasite or virus in culture. The series is classed as cell-based. Particulars: for IC50: Escherichia coli, PNPP colorimetric lab-scale assay, read-out: Inhibition of PhoA Secretion IC50, Lab-Scale.
For the next series, the system named is E. coli BW25113. The experiment in a line: Antimicrobial activity test (growth, OD600). It counts as cell-based. Particulars: Escherichia coli, 20 h, 37 °C, read-out: Bacterial Viability IC50, E. coli BW25113.
Series [3] can be described thus: Turbidimetric kinetic aqueous solubility assay. Particulars: pH 7, aqueous buffer, kinetic from dmso stock, turbidimetry 570 nm, PBS pH 7–7.2, 0.5% DMSO, 1 h; read-out: Aqueous Solubility (soluble at). The series is classed as physicochemical. As to the method:
The determination of the aqueous solubility of compounds in this assay is based on the principle of turbidimetry. Turbidimetric methods rely on the measurement of light scattering from precipitate in solution to determine the solubility. Precipitation is identified by an absorbance increase due to blockage of the light by the particles at the wavelength of 570 nm. Compounds, stored in matrix vials (Thermo Fisher) at a stock concentration of 30 mM or 10 mM in 100% Dimethyl sulfoxide (DMSO), were used to make a serial dilution (dose-response) in a 96-well v-bottom propylene plate (Greiner, 651201). Serial dilutions are made to perform the solubility assay; they were made row-wise and start with undiluted compound (30 mM or 10 mM) in the first well and were then 1 over 3 diluted further on. The serial dilutions were eight doses long and contain six compounds per plate maximal (rows B-G). Columns 1 and 12 were filled with 100% DMSO for control purposes. The dose-response plates were 200-times diluted in 300 µL Phosphate Buffered Saline (PBS; pH = 7–7.2 without Ca^2+/Mg^2+) (Gibco, 14190-144) by transferring 1.5 µL of serially diluted compound. […] Dilutions were made by diluting one 96-well plate in two 96-well, flat-bottom, polystyrene plates (Greiner, 655101). These plates were then incubated at room temperature for 1h. After 1h incubation, the plates were read on the envision (Perkin Elmer) at 570 nm.
The data of this assay is reported as “Soluble at” value for each compound. This “soluble at” value represents the concentration where the compound is still soluble and is the concentration before the first precipitated concentration. The first precipitated concentration is the concentration where the absorbance value is more than five standard deviations higher than the average background absorbance. The average background absorbance and the standard deviation are calculated on the 0.5% DMSO controls in columns 1 and 12.

In series [4] the test system is PhoA secretion in E. coli BW25113. The experiment in a line: Lab-scale p-nitrophenyl PhoA secretion assay, BW25113. The series is classed as cell-based. Particulars: Escherichia coli, read-out: PhoA secretion in vivo IC50, E. coli BW25113.
The next series has as its system HEK293T cells. Particulars: human, 24 h. As to the method:
Hek293T cells were harvested and diluted obtaining a cell suspension with a concentration of 200,000 cells/mL in complete growth medium (DMEM, 4.5 g/L d-glucose, pyruvate 1 mM, 0.075% bicarbonate and 10% Fetal Bovine serum). Of this cell suspension, 50 µL (10,000/well) was seeded in a 384 well culture plate (white polystyrene, tissue culture treated) and incubated at 37 °C-5% CO2 for 4 h in a moisturized incubator, which enables the cells to adhere. After the incubation, small chemical compounds were diluted in medium and 10 µL of a compound solution was added onto the cells, ending up with the required compound concentration. The cells were incubated for 24 h at 37 °C-5% CO2 in a moisturized incubator where after × µL medium was removed to equalize the liquid levels within one plate ending up with ±25 µL/well. The amount of remaining cells/well was determined with ATPlite^TM 1step (Perkin Elmer) Adenosine TriPhosphate (ATP) monitoring system, which is based on firefly luciferase.
The cytotoxicity was calculated by subtracting RLU (relative light units) obtained from the cells incubated with a compound from the RLUs obtained from cells in the presence of the vehicle.
The cytotoxic effect of a test compound was determined as:
Percent cell death = [1−((RLU determined for sample with test compound present—1) divided by (RLU determined in the presence of vehicle—1))] * 100.

For series [5], the system named is PhoA secretion in BW25113ΔtolC. The experiment in a line: Lab-scale p-nitrophenyl PhoA secretion assay, ΔtolC strain. The series is classed as cell-based, E. coli.
Series [6] deals with E. coli BW25113::imp-2413+. The experiment in a line: Antimicrobial activity test (growth, OD600). As to conditions: Escherichia coli, BW25113, read-out: Viability IC50, BW25113::imp-2413+.
The next series has as its system E. coli BW25113ΔtolC. The experiment in a line: Antimicrobial activity test (growth, OD600). As to conditions: for IC50: Escherichia coli, read-out: Viability IC50, BW25113ΔtolC, E. coli strain missing TolC; for Higher sensitivity of ΔtolC and imp-2413+ derivatives compared to BW25113: viability, Figure 5A.
Series [7] deals with Gram-negative and Gram-positive bacteria. The experiment in a line: Antimicrobial activity test, summary over Gram-negative and Gram-positive bacteria. The series is classed as cell-based. As to conditions: 19 Gram-negative and Gram-positive species evaluated.
Series [8] has as its system Staphylococcus aureus ATC6538P. The experiment in a line: Antimicrobial activity test (growth, OD600). The series is classed as cell-based. Particulars: read-out: Bacterial Viability (IC50).
The mark [9] stands for this setting: Escherichia coli, read-out: Inhibition of PhoA Secretion IC50, Lab-Scale (ΔtolC strain), BW25113ΔtolC, p-nitrophenyl assay.
Setting [10] is: E. coli BL21, MC4100 or BW25113.
The mark [11] stands for this setting: Escherichia coli, BW25113, BL21, E. coli BL21, MC4100 or BW25113.
Where [12] appears, read: Staphylococcus aureus, ATC6538P.

“And” between values parts separate entries of the source, which are not always exact repeats. Equal entries are not always repeated. Where two headings read alike, the source gives them in different places.

Broadly, the IC50 is the point on the concentration scale where inhibition reaches its midpoint. In general, solubility refers to the dissolved amount per volume that the medium holds.

As to `N=C(N)SCc1ccc(Cl)c(Cl)c1` [A22, S-(3,4-dichlorobenzyl)isothiourea], in the series on E. coli MG1655 LolA, the IC50 is 200 µM.
For `[N-]=[N+]=[N-].[Na+]` [CC#01, Sodium azide, reference compound], the “Concentration required for any observable inhibition of Gram-positive bacteria” value in the series on Gram-positive bacteria was over 100 mM. For the same molecule, in the series on E. coli MC4100 (NaN3 control), the “Bacterial Viability, E. coli MC4100 (value indicates MIC not IC50)” value worked out at 4000 µM. Moreover, the “Bacterial Viability, E. coli BL21 (value indicates MIC not IC50)” value in the series on E. coli BL21 (NaN3 control) came out at 4000 µM. For the same molecule, in the series on E. coli strains (at 4 mM), the “Growth inhibition of E. coli” value is listed as ~ 80%. Besides, in the series on E. coli, the “Antibacterial concentration for E. coli” value is 3 to 4.6 mM. Also, the “Inhibition of secreted phosphatase activity” value in series [1] (HTS assay conditions, sodium azide 4 mM positive control) is given as over 90%. In the series with B. subtilis ATCC6633 (NaN3 control), the “Bacterial Viability, B. subtilis ATCC6633 (value indicates MIC not IC50)” value is over 100000 µM. The “Level of secreted PhoA remaining” value in series [2] (sodium azide, Figure 2A, assay format not stated) is ~ 17%.
For the molecule `CN(C)c1c(C(=O)O)cnc2ccccc12` [HSI#07], the IC50 in the series with E. coli BW25113 was over 100 µM; in the series with E. coli MC4100, over 100 µM; in the series with E. coli BL21 it was over 100 µM; in [1] it was 19 µM; in the series with B. subtilis ATCC6633, over 100 µM; in [4], 19 µM. Besides, the IC50 was 26.4 µM in series [2] and 19.9 µM in [5] (setting [9]). Also, the solubility at 1 h in series [3] is 150 µM and 32.4 µg/mL. In addition, the “Toxicity of Mammalian Cells (HEK293T) LD50” value (from here on “Toxicity of Mammalian Cells”) in the series on HEK293T cells was found to be 60.2 µM.
On to `O=C(O)c1cnc2ccc(Cl)cc2c1O` [HSI#12], for which the IC50 with E. coli BW25113 was 39.7 µM; in the series with E. coli MC4100, over 100 µM; in the series with E. coli BL21 it was 60 µM; in the series with E. coli strains (setting [10]), < 65 µM and > 45 µM; with E. coli strains (setting [11]), 44 to 65 µM; in series [6], 41.4 µM. The IC50 in the series with E. coli BW25113ΔtolC was 23.3 µM; in [1] it was 11.5 µM; in the series on B. subtilis ATCC6633, over 100 µM; in [4], 19 µM; in [2], 11.2 µM; in [5] (setting [9]), 26 µM. Further, the “Higher sensitivity of ΔtolC and imp-2413+ derivatives compared to BW25113” value in the series on E. coli BW25113ΔtolC fell in the range of 2 to 40 times. Besides, the solubility at 1 h in series [3] was 50 µM and 11.8 µg/mL. Also, in series [7], the Antibacterial character result is reported as “bacteriocidal”. Also, the “Toxicity of Mammalian Cells” value with HEK293T cells came out at 60.2 µM.
For the molecule `O=C(O)c1cnc2cc(Cl)ccc2c1O` [HSI#14], the IC50 is 31.3 µM in the series on E. coli BW25113; over 100 µM with E. coli MC4100; over 100 µM with E. coli BL21; < 65 µM and > 45 µM with E. coli strains (setting [10]); 44 to 65 µM in the series on E. coli strains (setting [11]); 36.2 µM in series [6]. The IC50 in the series with E. coli BW25113ΔtolC was 17.2 µM; in [1] it was 13.4 µM; with B. subtilis ATCC6633 it was over 100 µM; in series [4], 13.5 µM; in [2], 14.6 µM; in series [5] (setting [9]), 11.5 µM. Moreover, the IC50 in series [5] (read-out: Inhibition of PhoA Secretion IC50, Lab-Scale (ΔtolC strain), BW25113ΔtolC, p-nitrophenyl assay) was determined as 11.5 µM. The “Higher sensitivity of ΔtolC and imp-2413+ derivatives compared to BW25113” value in the series with E. coli BW25113ΔtolC is listed as 2 to 40 times. Further, the solubility at 1 h in series [3] was 150 µM and 33.5 µg/mL. Further, the Antibacterial character result in series [7] is recorded as “bacteriocidal”. In addition, the “Toxicity of Mammalian Cells” value in the series with HEK293T cells is 60.2 µM.
Consider `N=C(N)SCc1ccc(Cl)cc1` [S-(4-chlorobenzyl)isothiourea], for which the IC50 in the series on E. coli MG1655 LolA is 150 µM.
On to `CC1(C)S[C@@H]2[C@H](NC(=O)[C@H](N)c3ccccc3)C(=O)N2[C@H]1C(=O)O` [ampicillin, reference compound], for which, in series [8] (Staphylococcus aureus ATC6538P), the IC50 was determined as 0.01 µM.
For `CC1(C)S[C@@H]2[C@H](NC(=O)Cc3ccccc3)C(=O)N2[C@H]1C(=O)O` [penicillin G, reference compound], the IC50 in series [8] (setting [12]) came to 0.5 µM.
Same read-out and setting: under `CN[C@H](CC(C)C)C(=O)N[C@H]1C(=O)N[C@@H](CC(N)=O)C(=O)N[C@H]2C(=O)N[C@H]3C(=O)N[C@H](C(=O)N[C@H](C(=O)O)c4cc(O)cc(O)c4-c4cc3ccc4O)[C@H](O)c3ccc(c(Cl)c3)Oc3cc2cc(c3O[C@@H]2O[C@H](CO)[C@@H](O)[C@H](O)[C@H]2O[C@H]2C[C@](C)(N)[C@H](O)[C@H](C)O2)Oc2ccc(cc2Cl)[C@H]1O` [vancomycin, reference compound] stands 17 µM.

These data come from article PMC8000395, “Effective Small Molecule Antibacterials from a Novel Anti-Protein Secretion Screen” (Microorganisms, 2021).
